Experimental data taken from patent US10118891B2, “Organosulfur compounds for the prevention and treatment of neurodegenerative diseases” (Allium Vitalis, Inc., priority 2011, dated 2018).
In brackets after ≈: the same amount, converted by molar mass.

Experiments:
[1] = system: protein carbonyls in synaptosomal membranes; conditions: cited from earlier work
[2] = system: Ehrilich ascites tumor cells; conditions: intracellular concentrations up to 0.6 mM; cited from earlier work
[3] = cited from earlier work
[4] = experimental self-consumption by the applicant, tolerability; type: in vivo, human; conditions: 240 mg/day for several weeks
ischemia = ischemia with elevation of HNE; cited from earlier work
[5] = oil and water system; cited from earlier work
[6] = partition coefficient (Log P), oil and water system; type: physicochemical; conditions: worked out from Log P
Description: Lipophilic molecule: Attracted to lipids. A molecule is lipophilic if it preferentially partitions into the oily side of an oil and water system.

[7] = system: glutathione content of cells; conditions: daily dosage of 1000 mg, multiple myeloma patients, with arsenic trioxide; cited from earlier work

Which results are given for `CCOC(=O)CNC(=O)[C@H](CS)NC(=O)CC[C@H](N)C(=O)O` [GEE, Glutathione Ethyl Ester]?
protein carbonyls, % of Control ([1]; GEE alone, no acrolein): 85%; protein carbonyls, "GEE+Acrolein" bar ([1]; synaptosomal membranes pretreated with GEE (3 hours), then acrolein): 163 % of "Control"

For `CC(O)C=CC=O` (stereo not drawn) [HPE], which “effect on protein sulfhydryls or enzyme activities” value [2] is on record?
The value was “no effect”.

What about the “low molecular weight thiols” value [2] of the same molecule?
The value was “depleted”.

With `C=CCS` [allyl mercaptan, AllylThiol] as the molecule, how does the solubility in water [3] read?
Its solubility in water is 5 g/L (≈ 67.4 mM).

What about the “negative effects on consumption” value [4] of the same molecule?
Its value is “without any apparent negative effects”.

What about the “standard comprehensive blood test at the end of the experiment” value [4] of the same molecule?
Its value is “essentially normal”.

Which “effect of treatment in ischemia” value (ischemia) does the source give for `CC1=NN(c2ccccc2)C(=O)C1` [edaravone] here?
The value was “protective effect”.

For `CCCS` [propyl mercaptan, 1-PropaneThiol], which “partition coefficient (Log P)” value [5] is on record?
Its value is 1.95.

And the “ratio of concentration on the oily side to the aqueous side” value [6]?
The value was roughly 100.

With `O=C1O[C@H]([C@@H](O)CO)C(O)=C1O` [vitamin C] as the molecule, how does the “glutathione depletion, mean percentage decrease” value [7] read?
Its value is 60%.

With Acrolein as the molecule, how does the “protein carbonyls, "C+Acrolein" bar” value ([1]; synaptosomal membranes, acrolein without GEE pretreatment) read?
Its value is 552 % of "Control".
